Data taken from patent US8350097B2, “Therapeutic compounds” (priority 2007, dated 2013).
“Also recorded” adds a separate entry of the source. Like-named read-outs stand apart in the source and are kept apart here. Marks after values point to notes of the source that are not given here.

How the values were obtained:
Male descented ferrets [1] = assay: Anti-emetic activity in ferrets (morphine sulfate-induced emesis); format: in vivo, ferret; settings: 6 ferrets, 45 min observation
Protocol: (§1) Male descented ferrets weighing 1.0-1.5 kg with vascular access ports in the jugular vein were housed on a 12/12-hour light/dark cycle under controlled temperature, with food and water provided ad libitum. On each study day, food was presented to ferrets one hour prior to dosing. Immediately prior to dosing, food and water were removed. A 1% Compound 1 formulation, prepared as described in Example 2 and formulated in accordance with Example 5, or […] was administered by IV infusion to the ferrets; see Wynn R L et al, 1993, Eur J Pharmacol 241, 42 re […] administration in ferrets. After administration of Compound 1 or […], animals were placed in clean, transparent cages (with lids) and left unrestrained for a 45-min observation period by an observer blinded to the specific treatment administered.
(§2) Episodes of retching and/or vomiting were considered separate episodes when the interval between retches and/or vomits exceeded 5 sec.
After termination of the infusion, 0.5 mg/kg morphine sulfate was administered subcutaneously and the ferrets were monitored for 45 min as described above. Six additional ferrets were administered subcutaneously 0.5 mg/kg morphine sulfate only.

[2] = tested on: commercial farm-bred swine; assay: Hemodynamic effects, blood gas and serum chemistry in anesthetized ventilated pigs, IV infusion; format: in vivo, pig
Protocol: Anesthesia was induced with isoflurane. Intravascular access was obtained from an ear vein. Each pig was intubated and mechanically ventilated.
ECG was monitored throughout the study. […] Body temperature was maintained at 37° C.
Arterial blood gas samples from pigs infused with Compound 1 were taken and analyzed for blood gas and serum chemistry values.

Beagle dogs [3] = assay: Hemodynamic effects (blood pressure) in beagle dogs, bolus IV; format: in vivo, dog; settings: for MAP % change from baseline: 4 min after bolus IV
Protocol: The study was a crossover design. […] The MTD was defined as the dose that reduced mean arterial blood pressure (MAP) by 50% or to less than 50 millimeters of mercury (mmHg or mm Hg). All animals received supplemental oxygen and, if needed, ventilatory support after 4 min of apnea.
Hemodynamic data, such as mean arterial pressure (MAP), were recorded at baseline, 1, 2, 4, 8, 15, 20 and 30 min. Compound 1 was administered at 5, 10, 15 and 30 mg/kg to 6, 4, 3 and 3 dogs respectively. […] Data were analyzed with a 2-way ANOVA followed by t-test with Bonferroni correction for multiple comparisons.

[4] = Aqueous phase concentration in lipid emulsion (pain on injection surrogate), ultrafiltration + LC/MS/MS; format: physicochemical; settings: for aqueous phase concentration: aqueous phase of 1% lipid emulsion separated by ultrafiltration; for reduction in aqueous phase concentration compared to propofol in identical formulations: 1% lipid emulsions formulated per Example 5
Protocol: The concentration of Compound 1 in the aqueous phase (aqueous phase concentration) of a lipid emulsion formulation was determined.
A one percent (1%) Compound 1 formulation was formulated in accordance with Example 5, Compound 1 being prepared as described in Example 2.

Beagle dogs [5] = tested on: Beagle dogs
Male Sprague Dawley rats = assay: Test A. Loss of Righting Reflex Assay; format: in vivo, rat; settings: for duration of anesthesia (loss of the Righting Reflex): 7 mg/kg bolus in tail vein, 1% formulation
Protocol: The ability of a compound of the invention to produce a sedative or hypnotic effect can be determined using standard pharmacological models which are well known to the art.
Test A. Loss of Righting Reflex Assay
Male Sprague Dawley rats were restrained in a holder and injection test compounds were injected in the tail vein (based on mg test compound/kg body weight). Following administration, the rats were placed in dorsal recumbent position on a heating blanket. The time to onset for the loss of the Righting Reflex (RR-ability of rat to right itself) was recorded, as was the duration of the loss of the RR.

male Sprague-Dawley rats = assay: Anesthetic effects in rats, bolus IV (LORR model of general anesthesia); format: in vivo, rat; settings: for production of LORR by dose / deaths: 6 rats per dose group; for deaths: dose as stated
Protocol: (§3) Also measured was minimum dose to achieve LORR and maximum tolerated dose (MTD).
(§4) The ranges of doses studied were 2, 3, 4, 7, 14 and 21 mg/kg for Compound 1 and 3.5, 4.0, 7.0 and 14.0 mg/kg for […].

[6] = as above; format: in vivo, rat; settings: male, Sprague-Dawley, rat, in vivo, read-out: MTD (maximum tolerated dose)
Protocol: as §3, §4

pig = assay: Test B. Anesthetized Pig Model (hemodynamic profile); format: in vivo; settings: equi-anesthetic doses (3 mg/kg vs propofol 6 mg/kg), FIGS. 1 and 2
Protocol: The hemodynamic profile of a compound of the invention can be determined using standard pharmacological models which are well known to the art. The hemodynamic and anesthetic profiles of a compound of the invention were evaluated simultaneously using an anesthetized pig model (as described in Test B below). In this assay, the hemodynamic profile of a compound of the invention was compared to that of propofol at equi-anesthetic doses.
Test B. Anesthetized Pig Model
The anesthetic induction will be performed using a modification of a technique described by Ko et al (Ko et al., Lab Anim Sci 1993; 43: 476-80) for swine (Telazol, xylazine and ketamine given as an intramuscular injection). […]
A pilot dose-finding study will be performed to establish an appropriate infusion dose for each agent. […] Blood samples (1 mL each) may be collected at pre-dose and at 2, 4, 6, 8, 10, 12, 15, 20, 22, […], 25, 35, 50, 65 and 80 minutes after the start of the first infusion for pharmacokinetic purposes; EEG will be recorded continuously as the primary pharmacodynamic endpoint. […]
The EEG signal will be fed to a BIS analyzer (Aspect Medical) which provides continuous output of processed EEG data. The output consists of a “BIS” number calculated by a proprietary algorithm that ranges between 100 (fully conscious) and 0 (isoelectric) and indicates brain activity. […]

[7] = Pharmacokinetic study, IV infusion in domestic pigs; format: in vivo
Protocol: A 0.5% Compound 1 formulation, prepared as described in Example 2 and formulated in accordance with Example 6, was administered to 6 pigs via a 20-min intravenous (IV) infusion at 0.6 mg/kg/min (12 mg/kg total dose).

[8] = tested on: commercial farm-bred swine; format: in vivo, pig; settings: pigs, 0.6 mg per kg per min
Protocol: Experiments were performed on commercial farm-bred swine of either sex (mean weight 33.6 kg). Anesthesia was induced with isoflurane. Intravascular access was obtained from an ear vein. Each pig was intubated and mechanically ventilated. Tissue oxygenation was monitored using continuous pulse oximetry placed on the tongue. Ventilation was monitored using an inspired/expired gas analyzer that measured oxygen, carbon dioxide, and potent inhalation agent concentrations. Ventilator settings were adjusted as needed to maintain steady state.
ECG was monitored throughout the study. Arterial blood pressure was monitored through the cannulated left femoral artery. MAP, systolic and diastolic arterial pressures and heart rate were collected every 5 seconds. An internal jugular vein was cannulated with a pulmonary artery catheter for thermodilution estimates of cardiac output and blood temperature. Body temperature was maintained at 37° C.

Male descented ferrets [9] = assay: Pro-emetic activity in ferrets; settings: 6 ferrets, IV infusion 15 min at 1 mg/kg/min, 45 min observation
Protocol: as §1, §2

[10] = morphine sulfate 0.5 mg/kg subcutaneously alone
[11] = 15 min IV infusion at 1 mg/kg/min then 0.5 mg/kg morphine sulfate s.c.

SMILES | MAP % change from baseline (Beagle dogs [3]; 10 mg/kg) | MAP % change from baseline (Beagle dogs [3]; 15 mg/kg) | MAP % change from baseline (Beagle dogs [3]; 30 mg/kg) | aqueous phase concentration [4] | duration of anesthesia (sleep time) (Beagle dogs [5]; dog, in vivo, iv, 5 mg/kg) | duration of anesthesia (sleep time) (Beagle dogs [5]; dog, in vivo, iv, 10 mg/kg) | duration of anesthesia (sleep time) (Beagle dogs [5]; dog, in vivo, iv, 15 mg/kg) | duration of anesthesia (sleep time) (Beagle dogs [5]; dog, in vivo, iv, 30 mg/kg) | duration of anesthesia (loss of the Righting Reflex) (Male Sprague Dawley rats) | TI (therapeutic index; ratio of MTD to HD7 min) (male Sprague-Dawley rats) | production of LORR by dose (male Sprague-Dawley rats) | MTD [6] | HD50 (dose required to cause 50% of the rats to lose righting reflex) (male Sprague-Dawley rats) | HD7 min (dose required to produce 7 minutes of anesthesia) (male Sprague-Dawley rats) | deaths (male Sprague-Dawley rats) | other results
CN1CC[C@]23c4c5ccc(O)c4O[C@H]2[C@@H](O)C=C[C@H]3[C@H]1C5.O=S(=O)(O)O [Morphine sulfate, reference compound] | – | – | – | – | – | – | – | – | – | – | – | – | – | – | – | episodes of vomiting (Male descented ferrets [1]; [10]): 15; retches (Male descented ferrets [1]; [10]): 157
CC(C)c1cccc(C(C)C)c1O [propofol, 2,6-diisopropylphenol, reference compound] | −22% | −32% | −66%* | 6.28 ± 0.41 µg/mL | 13 min | 28 min | 43 min | 69 min | 7.1 min | <2 | no LORR in 4 of 6 rats tested at 3.5 mg/kg | < 14 mg/kg | – | – | – | decrease in MAP, comparison ([2]; IV infusion, Compound 1 0.6 mg/kg/min vs propofol 0.750 mg/kg/min, FIG. 3): significantly larger decrease in MAP than Compound 1; lowest HR measured, comparison ([2]; IV infusion, Compound 1 0.6 mg/kg/min vs propofol 0.750 mg/kg/min, FIG. 4): significantly lower than the lowest HR measured for Compound 1; effect on MAP, comparison (Beagle dogs [3]; bolus IV): significantly greater effect on MAP than does Compound 1; also recorded: significantly greater effect on MAP than did (S)-(+)-2-sec-butyl-6-isopropylphenol; dogs reaching the MTD (MAP reduced by 50% or to less than 50 mmHg) (Beagle dogs [5]; dog, in vivo, iv, 15 mg/kg): Two of 3 dogs
CC[C@H](C)c1cccc(C(C)C)c1O [(S)-(+)-2-sec-butyl-6-isopropylphenol] | +3% | +1% | −33% | – | – | – | – | – | – | 3.1 | – | 21 mg/kg | 5 mg/kg | 6.7 mg/kg | One of six rats died when administered 28 mg/kg | duration of anesthesia (sleep time) (Beagle dogs [5]; dogs, bolus IV, 5 mg/kg): 12 min; duration of anesthesia (sleep time) (Beagle dogs [5]; dogs, bolus IV, 10 mg/kg): 33 min; duration of anesthesia (sleep time) (Beagle dogs [5]; dogs, bolus IV, 15 mg/kg): 50 min; duration of anesthesia (sleep time) (Beagle dogs [5]; dogs, bolus IV, 30 mg/kg): 56 min
CC[C@@H](C)c1cccc(C(C)C)c1O [Compound 1, (R)-(−)-2-sec-butyl-6-isopropylphenol] | 5% | −19% | −41% | 1.78 ± 0.17 µg/mL | 23 min | 33 min | 40 min | 71 min | 14.9 min | 4.1 | LORR at all doses of at least 3 mg/kg | 14 mg/kg | 2.3 mg/kg | 3.4 mg/kg | Three rats died when administered 21 mg/kg | hemodynamic profile vs. propofol (pig): improved hemodynamic profile; metabolic pathway [7]: glucuronidation in the 1-position with the 4-position being subject to hydroxylation followed by glucuronide and sulfate conjugation; Clearance ([7]; IV infusion): exceeded estimated hepatic blood flow; retches in the presence of morphine (Male descented ferrets [1]; [11]): 47; vomits in the presence of morphine (Male descented ferrets [1]; [11]): 1; metabolic alterations (arterial blood gas and serum chemistry) ([2]; IV infusion 0.6 mg/kg/min): did not produce any significant metabolic alterations; reduction in aqueous phase concentration compared to propofol in DIPRIVAN ([4]; 1% Compound 1 formulation vs DIPRIVAN): 57%; reduction in aqueous phase concentration compared to propofol in identical formulations [4]: 72%; reduction in aqueous phase concentration compared to propofol in identical formulations ([4]; listed as (R)-(−)-2-sec-butyl-6-isopropylphenol): more than 70%; anesthetic depth by Cumulative sedation scores (Beagle dogs [5]; dog, in vivo): approximately equipotent anesthetic depth; duration of anesthesia (sleep time) compared with propofol (Beagle dogs [5]; dog, in vivo, iv): similar; effect on BIS compared with propofol (Beagle dogs [5]; dog, in vivo, iv): greater effect on BIS at doses of at least 15 mg/kg; IV infusion time producing maximal suppression of BIS (<10) [8]: 17.3 ± 1.9 min; hypnotic potency compared to propofol (Male Sprague Dawley rats; Test A): more potent than propofol; episodes of vomiting or retching, drug administered alone (Male descented ferrets [9]): did not produce any episodes of vomiting or retching
